The results in this text go back to paper PMC7231327 (2020).

In assay [1] the test system is H-DNA 1 (DNA, aptamer) GCGGGCGGTTGTATAGCGGTTTTTTCTCACACGAATTCATCTGAC
Nature of the assay: competitive fluorescent lateral flow strip. The note with it: for Cross-reactivity: T-DNA competes, [AMP] at IC50/[M] at IC50, AMP = 100.

The test system of assay [2] is H-DNA 1' (DNA, aptamer) GCGGGCGGTTGTATAGCGGTTTTTTCTCACACGAATTCATCTGAC
Nature of the assay: competitive fluorescent lateral flow strip. The note with it: T-DNA competes on T line; AMP 150 and 200 ng/L; slight signal change.

In assay [1] (n = 3, RSD 2.34%), `CN(C)[C@@H]1C(=O)C(C(N)=O)=C(O)[C@@]2(O)C(=O)C3=C(O)c4c(O)cccc4[C@@](C)(O)[C@H]3C[C@@H]12` showed a Cross-reactivity of 0.67%. On to `CC1(C)S[C@@H]2[C@H](NC(=O)[C@H](N)c3ccccc3)C(=O)N2[C@H]1C(=O)O`, for which the binding entry in assay [2] is given as “weak”; in assay [1] (T-DNA (complementary strand) competes on T line, AMP 50-300 ng/L) it was “yes”. Molecule `CC1(C)S[C@@H]2[C@H](NC(=O)Cc3ccccc3)C(=O)N2[C@H]1C(=O)O` registered a Cross-reactivity in assay [1] (n = 3, RSD 3.56%) of 7.40%. Turning to `O=C(N[C@H](CO)[C@H](O)c1ccc([N+](=O)[O-])cc1)C(Cl)Cl`, the Cross-reactivity in assay [1] (n = 3, RSD 4.34%) worked out at 6.60%. In assay [1] (n = 3, RSD 3.89%), `NC[C@H]1O[C@H](O[C@H]2[C@H](O)[C@@H](O[C@H]3O[C@H](CO)[C@@H](O)[C@H](N)[C@H]3O)[C@H](N)C[C@@H]2N)[C@H](O)[C@@H](O)[C@@H]1O` yielded a Cross-reactivity of 5.53%. In assay [1] (n = 3, RSD 2.76%), `CN(C)[C@@H]1C(=O)C(C(N)=O)=C(O)[C@@]2(O)C(=O)C3=C(O)c4c(O)cccc4[C@@](C)(O)[C@H]3[C@H](O)[C@@H]12` registered a Cross-reactivity of 0.88%.
